Laboratory results from patent US20210330611A1, “THERAPY FOR NEUROLOGICAL DISEASES/DISORDERS” (priority 2020, published 2021).
Like-named read-outs stand apart in the source and are kept apart here.

Key:
[1] = system: fibrin-induced microglia activation; assay: Image-based assay of fibrin-induced microglia activation (HTS and dose response); assay type: cell-based, rat; details: for inhibition at 10 µM: Rattus norvegicus, Microglia, read-out: Fibrin % inhibition
[2] = system: LPS-induced microglia activation; assay: Image-based assay of LPS-induced microglia activation (HTS and dose response); assay type: cell-based, rat
[3] = system: fibrin- and LPS-induced microglia activation; assay: cells; assay type: cell-based, rat
primary rat microglia [4] = system: primary rat microglia;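 as to Fibrin % cell toxicity: share of dead cells sized under 150 µm2 at 10 µM in fibrin-stimulated microglia HTS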
primary rat microglia [5] = system: primary rat microglia; remark: listed apart in the source;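 as to Fibrin % cell toxicity: share of dead cells sized under 150 µm2 at 10 µM in fibrin-stimulated microglia HTS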
[6] = primary microglia HTS, fibrin stimulation, increased cell size (>800 μm^2) as marker of activation
[7] = Rattus norvegicus, Microglia, 48 h, primary microglia HTS, LPS stimulation; increased cell size (>800 μm^2) as marker of activation; read-out: LPS % inhibition
[8] = quadrant by fibrin and LPS inhibition in HTS of 1907 compounds
[9] = Rattus norvegicus, Microglia, read-out: LPS % inhibition
[10] = primary microglia HTS, fibrin stimulation, compounds at 10 μM
[11] = Rattus norvegicus, Microglia, primary microglia HTS, LPS stimulation, compounds at 10 μM; read-out: LPS % inhibition
[12] = classification by fibrin and LPS inhibition, HTS at 10 μM
[13] = quadrant by fibrin and LPS inhibition, HTS at 10 μM
[14] = primary microglia HTS, fibrin stimulation, cell size >800 μm2 as marker of activation
[15] = Rattus norvegicus, Microglia, 48 h; read-out: LPS % inhibition
[16] = classification by fibrin and LPS inhibition in HTS

CN(C)c1ccc(C(=C2C=CC(=[N+](C)C)C=C2)c2ccc(N(C)C)cc2)cc1 [Gentian Violet]
inhibition at 10 µM [1, 6]: 117%
inhibition at 10 µM [2, 7]: 118%
Quadrant (FIG. 5b) [3, 8]: Q2
Fibrin % cell toxicity (primary rat microglia [4]; rat): 38%
LPS % cell toxicity (primary rat microglia [5]; rat): 73%

CCN(CC)CCOc1ccc(C(=C(Cl)c2ccccc2)c2ccccc2)cc1 [Clomiphene]
inhibition at 10 µM [1]: 11%
inhibition at 10 µM [2, 9]: 7%
Quadrant (FIG. 5b) [3]: Q4
Fibrin % cell toxicity (primary rat microglia [4]; rat): 1%
LPS % cell toxicity (primary rat microglia [5]; rat): 0%

CN(C)/N=N/c1[nH]cnc1C(N)=O [Dacarbazine]
inhibition at 10 µM [1, 10]: -13%
inhibition at 10 µM [2, 11]: 17%
Quadrant (FIG. 5b) [3, 12]: Q4
Fibrin % cell toxicity (primary rat microglia [4]; rat): 0%
LPS % cell toxicity (primary rat microglia [5]; rat): 0%

O=c1[nH]cnc2c1ncn2[C@H]1CC[C@@H](CO)O1 [Didanosine]
inhibition at 10 µM [1, 10]: -8%
inhibition at 10 µM [2, 11]: -2%
Quadrant (FIG. 5b) [3, 12]: Q4
Fibrin % cell toxicity (primary rat microglia [4]; rat): 1%
LPS % cell toxicity (primary rat microglia [5]; rat): 0%

CN1[C@@H]2CC[C@H]1C[C@@H](OC(c1ccccc1)c1ccccc1)C2 [Benztropine]
inhibition at 10 µM [1]: -7%
inhibition at 10 µM [2, 9]: 30%
Quadrant (FIG. 5b) [3]: Q4
Fibrin % cell toxicity (primary rat microglia [4]; rat): 1%
LPS % cell toxicity (primary rat microglia [5]; rat): 0%

CC(C)Cc1ccc([C@H](C)C(=O)O)cc1 [Dexibuprofen]
inhibition at 10 µM [1, 10]: -3%
inhibition at 10 µM [2, 11]: 13%
Quadrant (FIG. 5b) [3, 12]: Q4
Fibrin % cell toxicity (primary rat microglia [4]; rat): 1%
LPS % cell toxicity (primary rat microglia [5]; rat): 0%

CC[C@]1(O)C[C@H]2CN(CCc3c([nH]c4ccccc34)[C@@](C(=O)OC)(c3cc4c(cc3OC)N(C=O)[C@H]3[C@@](O)(C(=O)OC)[C@H](OC(C)=O)[C@]5(CC)C=CCN6CC[C@]43[C@@H]65)C2)C1 [Vincristine]
inhibition at 10 µM [1, 10]: 105%
inhibition at 10 µM [2, 11]: 104%
Quadrant (FIG. 5b) [3, 13]: Q2
Fibrin % cell toxicity (primary rat microglia [4]; rat): 33%
LPS % cell toxicity (primary rat microglia [5]; rat): 10%

N[C@@H]1C[C@H]1c1ccccc1 (racemic) [Tranylcypromine]
Fibrin % inhibition ([1]; 10 µM): 5%
LPS % inhibition ([2]; 10 µM): −5%
Quadrant (FIG. 5b) [3]: Q4
Fibrin % cell toxicity (primary rat microglia [4]): 1%
LPS % cell toxicity (primary rat microglia [5]): 0%

O=C([O-])[C@H](O)[C@@H](O)[C@H](O)[C@H](O)CO.[Na+] [Sodium Gluconate]
inhibition at 10 µM [1, 14]: 1%
inhibition at 10 µM [2, 15]: 11%
Quadrant (FIG. 5b) [3, 16]: Q4
Fibrin % cell toxicity (primary rat microglia [4]; rat): 1%
LPS % cell toxicity (primary rat microglia [5]; rat): 0%

CC(C)(C(=O)c1cccnc1)c1cccnc1 [Metyrapone]
inhibition at 10 µM [1, 6]: -60%
inhibition at 10 µM [2, 7]: 39%
Quadrant (FIG. 5b) [3, 8]: Q4
Fibrin % cell toxicity (primary rat microglia [4]; rat): 1%
LPS % cell toxicity (primary rat microglia [5]; rat): 0%

CC[C@H]1OC(=O)[C@H](C)[C@@H](O[C@H]2C[C@@](C)(OC)[C@@H](O)[C@H](C)O2)[C@H](C)[C@@H](O[C@@H]2O[C@H](C)C[C@H](N(C)C)[C@H]2O)[C@](C)(O)C[C@@H](C)CN(C)[C@H](C)[C@@H](O)[C@]1(C)O [Azithromycin]
inhibition at 10 µM [1, 10]: -16%
inhibition at 10 µM [2, 11]: 11%
Quadrant (FIG. 5b) [3, 13]: Q4
Fibrin % cell toxicity (primary rat microglia [4]; rat): 0%
LPS % cell toxicity (primary rat microglia [5]; rat): 0%

CC(C)c1nc(CN(C)C(=O)N[C@H](C(=O)N[C@@H](Cc2ccccc2)C[C@H](O)[C@H](Cc2ccccc2)NC(=O)OCc2cncs2)C(C)C)cs1 [Ritonavir]
inhibition at 10 µM [1, 14]: -8%
inhibition at 10 µM [2, 15]: 11%
Quadrant (FIG. 5b) [3, 16]: Q4
Fibrin % cell toxicity (primary rat microglia [4]; rat): 0%
LPS % cell toxicity (primary rat microglia [5]; rat): 0%

Acriflavinium Hydrochloride
Fibrin % inhibition [1, 6]: 110%
LPS % inhibition ([2]; primary microglia HTS, LPS stimulation; increased cell size (>800 μm^2) as marker of activation): 129%
Quadrant (FIG. 5b) [3, 8]: Q2
Fibrin % cell toxicity (primary rat microglia [4]): 57%
LPS % cell toxicity (primary rat microglia [5]): 63%

CN1CCN(CC(=O)N2c3ccccc3C(=O)Nc3cccnc32)CC1 [Pirenzepine]
inhibition at 10 µM [1]: 16%
inhibition at 10 µM ([2]; Rattus norvegicus, Microglia, 48 h, read-out: LPS % inhibition): 19%
Quadrant (FIG. 5b) [3]: Q4
Fibrin % cell toxicity (primary rat microglia [4]; rat): 0%
LPS % cell toxicity (primary rat microglia [5]; rat): 0%

CC1=C(/C=C/C(C)=C/C=C/C(C)=C\C(=O)O)C(C)(C)CCC1 [Isotretinoin]
inhibition at 10 µM [1, 6]: 112%
inhibition at 10 µM [2, 7]: 55%
Quadrant (FIG. 5b) [3, 8]: Q2
Fibrin % cell toxicity (primary rat microglia [4]; rat): 13%
LPS % cell toxicity (primary rat microglia [5]; rat): 1%
